# What was measured:
# [1] = test system: 66 cancer cell lines; assay: CTG cell viability assay, 66 cancer cell lines (AUC); assay type: cell-based, human; settings: for activity (AUC) in hematological malignancies compared to solid organ cancers: ANOVA p-value=2.3e-08
# Procedure: (§1) Cell lines and reagents. All cell lines were cultured in appropriate media supplemented with 10-15% fetal bovine serum (Cat #FND500, ExCell Bio, China) at a temperature of 37° C., 5% CO2 and 95% humidity. Cell viability was measured using the CTG Luminescent Cell Viability Assay (Promega, Madison, WI, USA) by standard procedures as described below. Satraplatin was purchased from MedChemExpress (Shanghai, PRC) and cisplatin from Qilu Pharm (Jinan, Shandong, PRC), respectively. 1 mM stock solutions of both drugs were established for storage at −20° C. as previously described (5).
# (§2) Determination of the half maximal inhibition concentration (IC50). Cells were harvested during the logarithmic growth period and cell numbers counted using Count-star (Inno-Alliance Biotech, USA). Cell density was adjusted to 4.44×10^4 cells/mL with the respective culture medium. Then, 90 μL cell suspensions were added in triplicate to a 96-well plate with the final cell density of 4×10^3 cells/well. […] The test plate was incubated for 72 h in the humidified incubator at 37° C. with 5% CO2, and then evaluated using CTG cell viability assay (Promega). For that purpose, plates were equilibrated at room temperature for approximately 30 min. Then, 50 μL CTG reagent was added to each well. […] Luminescence was recorded using EnVision Multi Label Reader (Perkin Elmer, Richmond, CA, USA).
# (§3) Data Analysis. The data were analyzed and visualized using GraphPad Prism 5.0 (GraphPad Software, San Diego, CA, USA) and Think-Cell 11 (Think-Cell Software, Berlin, Germany). […] The formula for calculating the cell survival rate was: Cell survival (%) at Cx=(Cx−M)/(N−M)×100%, Cx being the luminescence signal of cells cultured with any concentration of the test compound, M being the luminescence signal of the blank control (with no cells) and N being the vehicle control with culture medium containing 0.25% (v/v) dimethyl sulfoxide. The absolute IC50 was calculated according to the dose-response curve generated by GraphPad Prism 5.0. […]
# [2] = test system: hematological malignancies (n=44) cell lines; assay: CTG cell viability assay, hematological malignancy cell lines; assay type: cell-based, human
# Procedure: as §1, §2, §3
# [3] = test system: DLBCL cell lines; assay: CTG cell viability assay, DLBCL cell lines; assay type: cell-based, human; settings: DLBCL and its respective cell lines
# Procedure: as §1
# (§4) Determination of the half maximal inhibition concentration (IC50). Cells were harvested during the logarithmic growth period and cell numbers counted using Count-star (Inno-Alliance Biotech, USA). Cell density was adjusted to 4.44×10^4 cells/mL with the respective culture medium. […] The test plate was incubated for 72 h in the humidified incubator at 37° C. with 5% CO2, and then evaluated using CTG cell viability assay (Promega). […] Luminescence was recorded using EnVision Multi Label Reader (Perkin Elmer, Richmond, CA, USA).
# (§5) Data Analysis. The data were analyzed and visualized using GraphPad Prism 5.0 (GraphPad Software, San Diego, CA, USA) and Think-Cell 11 (Think-Cell Software, Berlin, Germany). […] The absolute IC50 was calculated according to the dose-response curve generated by GraphPad Prism 5.0. […]
# [4] = test system: OCI-LY3 cell line; assay: CTG cell viability assay, OCI-LY3; assay type: cell-based, human
# Procedure: as §1, §4, §5
# [5] = test system: OCI-LY7 cells; assay: CTG cell viability assay, OCI-LY7; assay type: cell-based, human
# Procedure: as §1, §4, §5
# [6] = test system: CTCL cell line HUT78; assay: CTG cell viability assay, HUT78; assay type: cell-based, human
# Procedure: as §1, §4, §5
# [7] = test system: MTAP deficient cell lines; assay: Satraplatin IC50 plotted against MTAP status; assay type: cell-based, human
# Procedure: as §1, §4, §5
# [8] = test system: lymphoma cell lines harboring gene copy number deletions in the 9p21 locus; assay: Satraplatin sensitivity versus DNA copy number deletion; assay type: cell-based, human; settings: MTAP/CDKN2A/CDKN2B/DMRTA1 deletions
# Procedure: as §2
# Data Analysis. The data were analyzed and visualized using GraphPad Prism 5.0 (GraphPad Software, San Diego, CA, USA) and Think-Cell 11 (Think-Cell Software, Berlin, Germany). […] The formula for calculating the cell survival rate was: Cell survival (%) at Cx=(Cx−M)/(N−M)×100%, Cx being the luminescence signal of cells cultured with any concentration of the test compound, M being the luminescence signal of the blank control (with no cells) and N being the vehicle control with culture medium containing 0.25% (v/v) dimethyl sulfoxide. […]
# [9] = test system: hormone refractory prostate cancer patients (HRPC); settings: monotherapy; cited from earlier work
# [10] = test system: BCL2 expression; settings: cited from earlier work
# [11] = cited from earlier work
smiles,measurement,setting,value
"CC(=O)[O][Pt]([NH2])([Cl])([Cl])([NH]C1CCCCC1)[O]C(C)=O [satraplatin, bis (acetato) ammine dichloro (cyclohexylamine) platinum (IV)]",activity (AUC) in hematological malignancies compared to solid organ cancers,[1],significant higher activity in haematopoietic & lymphoid malignancies
same,activity (AUC) in hematological malignancies compared to solid organ cancers,[1]; listed as Satraplatin,significantly more active in hematological malignancies
same,median AUC value across all tested cell lines,"[1]; area under dose-response curve, 72 h, CTG, FIG. 1",2.35
same,activity grouped by histology,"[2]; DLBCL, T-cell lymphoma, MCL, MM and Burkitt lymphoma cell lines",high activity
same,IC50 values,"[2]; group of hematologic malignancies, 72 h, CTG",low to sub micromolar levels
same,activity compared with standard cisplatin,"[2]; within the group of hematologic malignancies, p-value=0.009, FIG. 2",significantly more active
same,IC50 values,[3],low micromolar or even sub-molar
same,cell killing,[4],killed very efficiently
same,activity compared with cisplatin,[4]; p-value of 0.0006,significantly more active than cisplatin
same,killing compared to cisplatin,[5],significantly superior
same,IC50,[6],low-micromolar
same,activity in MTAP deleted hematopoietic cell lines,[7],high activity
same,activity on cell lines with 9p21 copy number deletions,[8],more active
same,objective response rate,[9],up to 31%
same,effectiveness in contrast to oxaliplatin,[10],significantly more effective
same,reduction of BCL2 expression,[10]; independently of P53 mutational status,up to 13 fold
same,access to the cerebrospinal fluid,[11],access the cerebrospinal fluid at sufficient dose levels

# — patent US20250082600A1, “TREATING HAEMATOLOGICAL MALIGNANCIES BY MEANS OF SATRAPLATIN” (PHARMA& SCHWEIZ GMBH, priority 2022, published 2025)
